“And” between values parts separate entries of the source, which are not always exact repeats. Equal values may be shown once.
What was measured:
[1] = test system: T-PSA-3A cells; experiment: IFN-γ production by T cell line stimulated with peptide-pulsed DCs (ELISA); type: cell-based, human; conditions: peptide 25 μg/ml
Protocol: (§1) Detection of Cytokines. Supernatant of T cells exposed for 24 h to peptide-pulsed infected DC, rV-PSA infected DC, or rV-PSA-3A infected DC, in IL-2-free medium at various responder: stimulator ratios, were screened for secretion of IFN-γ using an ELISA kit (R & D Systems, Minneapolis, Minn.). The results were calculated as pg/ml. A Cytometric Bead Array (CBA) system (BD PharMingen, San Diego, Calif.) was also used to determine the secretion of multiple cytokines by specific T cell lines. The CBA system uses the fluorescence detection by flow cytometry to measure soluble analytes in a particle-based immunoassay. The BD human Th1/Th2 cytokine CBA Kit was employed to measure IL-2, IL-4, IL-5, IL-10, TNF-α, and IFN-γ protein levels in a single sample. The cytokine capture beads were mixed with PE-conjugated detection antibodies and then incubated with recombinant cytokine standards or test samples to form sandwich complexes. The samples results were generated in graphical and tabular format using BD CBA analysis software. The results were calculated as pg/ml.
Table 2: Production of IFN-γ by a T cell line stimulated with PSA-3 or agonist PSA-3A peptides. The PSA-specific T cell line T-PSA-3A was used as effector cells at IVS-3. T-PSA-3A cells were stimulated with irradiated HLA-A2 positive allogeneic DCs either pulsed with PSA-3 or PSA-3A peptide at a concentration of 25 μg/ml and an effector-to-APC ratio of 10:1. After 24-h culture supernatants were collected and screened for the secretion of IFN-γ. APC=antigen […].

[2] = molecular target: T1, HLA-A2 (Homo sapiens, UniProt P04439, D140Y/D185E/D98H/E176V/E277Q/G131W/G231S/I119V/I121R/I166T/I218V/L300P/L318F/N151K/N90K/P208A/P217A/Q86G/Q94H/R138H/R169H/T345S); experiment: Peptide binding to HLA-A2 on T2A2 cells (flow cytometry)
T1 construct: endogenous in cells; host or cells: T2A2 / 174CEM-T2 (T2) transport deletion mutant cell line
Protocol: Single-color flow cytometric analysis. The method for single-color flow cytometric analysis was described previously (F. Guadagni et al., 1990, Cancer Res. 50:6248–6255). Briefly, cells were washed three times with cold Ca^2+ and Mg^2+-free DPBS and then stained for 1 h with mAb against HLA-A2 (A2,69, One Lambda, Inc., Canoga Park, Calif.), using 10 μg of the 1× working dilution per 10^6 cells. Mineral oil plasmacytoma-104E (Cappel/Organon Teknika Corp., West Chester, Pa.) was used as an isotype control. The cells were washed three times and incubated with a 1:100 dilution of fluorescein isothiocyanate (FITC)-labeled goat anti-mouse immunoglobulin (IgG) (Kirkegaard and Perry Laboratories, Gaithersburg, Md.). The cells were immediately analyzed using a Becton Dickinson FACScan equipped with a blue laser with an excitation of […] at 488 nm. Data were gathered from 10,000 live cells, stored and used to generate results.
Peptide Binding to HLA-A2. […] Briefly, 1×10^6 cells in serum-free Iscove's modified Dulbecco's complete medium were incubated with peptides at a concentration of 50 μg/ml in 24 well culture plates at 37° C. in 5% CO2. Flow cytometry for peptide binding was performed using T2 cells and single-color analysis. After cells were washed three times in DPBS, as described above, they were incubated for 1 h with HLA-A2 specific MAb (One Lambda, Inc.) using 10 μg of a 1× working dilution per 10^6 cells. UPC-10 (Cappel/Organon Teknika) was used as isotype control. The cells were washed three times and incubated with 1:100 dilution of FITC-labeled anti-mouse IgG (Becton Dickinson). Analysis was conducted with the FACScan, as described above. Cells were maintained on ice during all cell preparation and staining.
The four analogs were then tested for binding to the HLA-A2 positive T2A2 cells as described in the Examples section. The NCA peptide was previously shown to not bind to HLA-A2, and was used as a negative […] control. Peptides were added to T2A2 cells at concentrations of 0 to 50 μg/ml.

[3] = test system: T-PSA-3 cells; experiment: Cytometric Bead Array cytokine production by peptide-stimulated T cells; type: cell-based, human
Protocol: as §1
The cytokine profile of T cells stimulated with APCs pulsed with either the PSA-3 or the PSA-3A peptide was then analyzed. The T cell line derived using the PSA-3 peptide was used in these studies, and the APCs used were autologous B cells. A Cytometric Bead Array (CBA) assay was used for analysis (see Examples section) using supernatant fluids obtained 24 h after stimulation. FIGS. 6A–6C illustrate […] of the 10 internal standards used for the calibration of the results obtained in this assay. FIGS. 6D–6F show the levels of each of six cytokines produced by T cells stimulated with APCs pulsed with no peptide, PSA-3A peptide, and PSA-3 peptide, respectively. […] The results obtained for IL-5 will be discussed below (Conclusions section).

[4] = test system: C1R-A2 cells; experiment: 111In release cytotoxic assay, peptide-pulsed targets; type: cell-based, human
[5] = test system: T-PSA-3 cells; type: cell-based, human
[6] = T-PSA-3 + peptide-pulsed autologous B cells, 24 h supernatant

With VLSNDVCAQV (SEQ ID NO:3) [PSA-3A] the “PRODUCTION OF IFN-γ” value ([1]; APC DCs, T-PSA-3A T cells present, effector-to-APC 10:1, 24 h, IVS-3) was 566 pg/mL, the “PRODUCTION OF IFN-γ” value ([1]; APC DCs, no T cell, 24 h) was under 15 pg/mL and the “PRODUCTION OF IFN-γ” value ([1]; no APC, T-PSA-3A T cells present, 24 h) was under 15 pg/mL. The “Binding to HLA-A2 at lower peptide concentrations” value ([2]; FIG. 1B) was “clearly bound higher levels of HLA-A2 than PSA-3”, the “Binding to HLA-A2 (relative fluorescence, MFI)” value ([2]; peptide 0 to 50 μg/ml, FIG. 1A) was “higher levels than PSA-3” and the “Production of IL-5” value ([3]; T cells stimulated with PSA-3A as compared to PSA-3 peptide) was “increase”. For the same sequence, the “Production of IFN-γ” value [3, 6] was “greater production”, the “Production of IL-2” value [3, 6] was “greater production” and the “Production of IL-4” value [3, 6] was “Low or undetectable levels”. For the same sequence, the “Production of IL-10” value [3, 6] was “Low or undetectable levels”, the “Production of TNF-α” value [3, 6] was “No TNF-α could be detected” and the “Fold less peptide than PSA-3 peptide necessary for lysis” value ([4]; T-PSA-3A line, C1R-A2 targets, E:T 25:1, FIG. 4A) was “approximately 8 fold”. The “Fold less peptide required to achieve similar levels of lysis” value ([4]; T-PSA-3 line, C1R-A2 targets, E:T 25:1) was “approximately 8 fold”, the “Lysis of peptide-pulsed C1R-A2 cells by T-PSA-3A line” value ([4]; peptide 25 μg/ml, IVS-3, two E:T ratios, FIG. 3A) was “to a greater extent than cells pulsed with the PSA-3 peptide” and the “Lysis of peptide-pulsed C1R-A2 cells by T-PSA-3 line” value ([4]; peptide 25 μg/ml, IVS-3, two E:T ratios, FIG. 3B) was “to a greater extent than those pulsed with the PSA-3A peptide”. For the same sequence, the “Production of IFN-γ by None (no T cells)” value [5] was under 13.0 pg/mL and the “Production of IFN-γ by T-PSA-3” value [5] was 946.6 pg/mL and 915.9 pg/mL.

— patent publication US7247615B2, “Peptide agonists of prostate-specific antigen and uses therefor” (priority 2001, dated 2007)
